Test results published in PMC4767442 (Oncotarget, 2015).
Values belong to the molecule of their own block, whether it stands above or below them.

Tests used:
[1] = cited from earlier work
[2] = Pharmacokinetics and metabolism of Bp4eT in rats (literature); assay type: in vivo
[3] = test system: non-cancer cell lines (H9c2 and 3T3); assay: MTT assay, non-cancer cell lines as a group; assay type: cell-based; settings: Rattus norvegicus, 72 h/37°C, read-out: IC50 towards non-cancer cells
Protocol: The MCF-7 human breast adenocarcinoma cell line was purchased from the European Collection of Cell Cultures (U.K.). The HL-60 human promyelocytic leukemia cell line, HCT116 human colorectal carcinoma cell line, H9c2 rat heart-derived myoblast cell line and 3T3 mouse embryo fibroblast line, were obtained from the American Type Culture Collection (VA, U.S.A.). Cells were cultured in Dulbecco's modified Eagle's medium (DMEM, Lonza, Switzerland) with or without (for MCF-7 cells only) phenol red, supplemented with 10% heat-inactivated fetal bovine serum (FBS; Lonza, Switzerland), 1% penicillin/streptomycin solution (Lonza, Switzerland) and 10 mM HEPES buffer (pH 7.0-7.6; Sigma-Aldrich, Germany). The HL-60 cell line was maintained in RPMI medium (Sigma-Aldrich, Germany) supplemented with 10% heat-inactivated FBS and 1% penicillin/streptomycin solution. […]
Cells were seeded in 96-well plates for 24 h/37°C at a density of 5,000 (MCF-7), 10,000 (HL-60), 2,000 (HCT116) and 10,000 (3T3 and H9c2) cells/well. […] Viabilities of cells were determined using MTT assays (Sigma-Aldrich, Germany) according to the manufacturer's instructions on a Tecan Infinite 200M plate reader (Tecan, Austria). The proliferation/viability of treated groups was expressed as a percentage of the untreated controls (100%).

[4] = test system: cellular labile iron pools; assay: Fluorimetric calcein-AM assay of intracellular iron chelation; assay type: cell-based; settings: 10 μmol·L^−1, parent Dp44mT or DpC
Protocol: (§1) Iron chelation efficiency of the compounds at a concentration of 10 μmol·L^−1 was determined via 3 methods: (1) the calcein assay; (2) the ability of the ligands to induce ^59Fe mobilization from cells prelabeled with ^59Fe-transferrin; and (3) the efficacy of these agents to inhibit the uptake of ^59Fe from ^59Fe-transferrin [22, 38–40].
(§2) The fluorimetric calcein-AM assay was performed by established methods, as described previously. The Fe chelation efficiency of the metabolites in cells was expressed as a percentage of that of the parent chelator, Dp44mT or DpC (100%). For studies assessing the ability of these agents to induce ^59Fe mobilization and inhibit ^59Fe uptake from ^59Fe-transferrin by cells, human transferrin (Sigma-Aldrich, Germany) was labeled with ^59Fe (PerkinElmer, MA, USA) to generate ^59Fe-transferrin at a final specific activity of 500 pCi/pmol Fe, as previously described. The unbound ^59Fe was removed by exhaustive vacuum dialysis against a large excess of 0.15 M NaCl buffered to pH 7.4 with 1.4% NaHCO3 by standard methods.

[5] = test system: cancer cell lines (HL-60, MCF-7 and HCT116); assay: MTT assay, cancer cell lines as a group; assay type: cell-based; settings: Homo sapiens, HL-60, MCF-7, HCT116, 72 h/37°C, read-out: IC50 against all cancer cell lines
Protocol: (§3) The MCF-7 human breast adenocarcinoma cell line was purchased from the European Collection of Cell Cultures (U.K.). The HL-60 human promyelocytic leukemia cell line, HCT116 human colorectal carcinoma cell line, H9c2 rat heart-derived myoblast cell line and 3T3 mouse embryo fibroblast line, were obtained from the American Type Culture Collection (VA, U.S.A.). Cells were cultured in Dulbecco's modified Eagle's medium (DMEM, Lonza, Switzerland) with or without (for MCF-7 cells only) phenol red, supplemented with 10% heat-inactivated fetal bovine serum (FBS; Lonza, Switzerland), 1% penicillin/streptomycin solution (Lonza, Switzerland) and 10 mM HEPES buffer (pH 7.0-7.6; Sigma-Aldrich, Germany). The HL-60 cell line was maintained in RPMI medium (Sigma-Aldrich, Germany) supplemented with 10% heat-inactivated FBS and 1% penicillin/streptomycin solution. All cell lines were cultured in 75 cm^2 tissue culture flasks (Switzerland) at 37°C in a humidified atmosphere of 5% CO2. Sub-confluent cells or, in the case of HL-60 cells, a cell suspension, were sub-cultured every 3-4 days.
(§4) Cells were seeded in 96-well plates for 24 h/37°C at a density of 5,000 (MCF-7), 10,000 (HL-60), 2,000 (HCT116) and 10,000 (3T3 and H9c2) cells/well. For 3T3 and H9c2 cells, the medium was changed to serum- and pyruvate-free DMEM 24 h prior to the experiments. Anti-proliferative and cytotoxicity effects of the compounds were studied at different concentrations after incubations for 72 h/37°C. Viabilities of cells were determined using MTT assays (Sigma-Aldrich, Germany) according to the manufacturer's instructions on a Tecan Infinite 200M plate reader (Tecan, Austria). The proliferation/viability of treated groups was expressed as a percentage of the untreated controls (100%).

[6] = test system: HCT116 human colorectal carcinoma cell line; assay: MTT proliferation/viability assay, HCT116; assay type: cell-based; settings: HCT-116, 72 h/37°C, mean ± S.D.
Protocol: as §3, §4

[7] = test system: MCF-7 human breast adenocarcinoma cell line; assay: MTT proliferation/viability assay, MCF-7; assay type: cell-based; settings: MCF7, 72 h/37°C, mean ± S.D.
Protocol: as §3, §4

[8] = Long-term stability in plasma samples at -80°C; assay type: in vitro ADME, rat; settings: for Long-term stability: plasma, -80°C, 7 days
Protocol: (§5) The UHPLC-MS/MS methods for quantitative assays were validated with respect to selectivity, linearity, precision, accuracy, stability, recovery, matrix effects and dilution integrity (see […]
Linearity was examined over the concentration ranges described in Supplementary Table 1 using a weighted (1/x 2) linear regression in GraphPad Prism 6 (v. 6.04, GraphPad Software […]
(§6) Stability was assessed at low, medium and high concentration levels. Long -term stability was assessed for plasma samples at -80°C over a period of 7 days (three aliquots per level; Supplementary Table 3). […]

MCF-7 cells [9] = assay: 59Fe mobilization from cells prelabeled with 59Fe-transferrin; assay type: cell-based, human; settings: MCF-7 prelabeled with 59Fe-transferrin, compounds 25 μmol·L^−1, 3 h/37°C
Protocol: as §1, §2
(§7) To examine the ability of the studied substances to mobilize ^59Fe from MCF-7 cells or inhibit ^59Fe uptake from ^59Fe-transferrin, established techniques were utilized. For ^59Fe mobilization studies, cells were preincubated with ^59Fe-transferrin (0.75 μmol·L^−1) for 3 h/37°C, washed 4 times at 4°C on ice, and then reincubated with control medium or control medium containing the compounds (25 μmol·L^−1) for 3 h/37°C. The release of ^59Fe from the cells into the overlying medium was then examined by collecting both the cells and overlying medium and assessing ^59Fe levels using a γ-counter. For studies examining the ability of the agents to inhibit ^59Fe uptake from ^59Fe-transferrin, cells were incubated for 3 h/37°C with ^59Fe-transferrin (0.75 μmol·L^−1) in the presence or absence of the agents (25 μmol·L^−1), and then washed 4 times at 4°C on ice. The internalization of ^59Fe by cells was then assessed by incubation for 30 min/4°C with the general protease, Pronase (1 mg/mL), utilizing standard techniques. The amount of internalized ^59Fe in the presence of the agents was expressed as a percentage of ^59Fe internalized by control cells incubated in the presence of control media alone.

[10] = Post-preparative stability in the autosampler at 10°C; assay type: physicochemical; settings: for Post-preparative stability: autosampler 10°C, 24 h
Protocol: as §5
Supplementary Table 1-3). […]
as §6

[11] = test system: 3T3 mouse embryo fibroblast line; assay: MTT proliferation/viability assay, 3T3; assay type: cell-based; settings: 72 h/37°C, mean ± S.D., serum- and pyruvate-free DMEM
Protocol: as §3, §4

[12] = test system: H9c2 rat heart-derived myoblast cell line; assay: MTT proliferation/viability assay, H9c2; assay type: cell-based; settings: 72 h/37°C, mean ± S.D., serum- and pyruvate-free DMEM
Protocol: as §3, §4

MCF-7 cells [13] = assay: Inhibition of internalized 59Fe uptake from 59Fe-transferrin; assay type: cell-based, human; settings: MCF-7, compounds 25 μmol·L^−1, 3 h/37°C
Protocol: as §1, §2, §7

[14] = test system: HL-60 human promyelocytic leukemia cell line; assay: MTT proliferation/viability assay, HL-60; assay type: cell-based; settings: 72 h/37°C, mean ± S.D.
Protocol: as §3, §4

[15] = parameters: method as in PMID 12203104; settings: humans, single i.v. bolus; cited from earlier work
[16] = high concentration level (2.105-3.115 µmol·L-1)
[17] = low concentration level (0.035-0.156 µmol·L-1)
[18] = medium concentration level (0.702-1.558 µmol·L-1)

dose-corrected Cmax, fold higher than Dp44mT and DpC of the present study [2]: ~2 fold
Structure (SMILES): CCNC(=S)NN=C(c1ccccc1)c1ccccn1 [Bp4eT, 2-benzoylpyridine 4-ethyl-3-thiosemicarbazone]
AUC of the amidrazone metabolite relative to the parent drug ([1]; rat, in vivo): ≈ 20% | elimination half-life ([1]; rats): 1.4 h

IC50 [5]: ≥ 19 µM | IC50 [6]: 34.1 ± 6.35 µM | IC50 [7]: 19.5 ± 6.27 µM | Long-term stability [8, 16]: 104.23% | Long-term stability [8, 17]: 87.83% | Long-term stability [8, 18]: 105.54% | decomposition on storage (in words) ([8]; up to 7 days stored at −80°C): No significant decomposition | decomposition on storage (in words) ([10]; 24 h storage in the autosampler at 10°C): No significant decomposition | Post-preparative stability [10, 16]: 99.55% | Post-preparative stability [10, 17]: 101.11% | Post-preparative stability [10, 18]: 93.89% | IC50 [14]: 32.3 ± 3.85 µM
Structure (SMILES): CN(C=NN=C(c1ccccn1)c1ccccn1)C1CCCCC1 [DpC-A, N-cyclohexyl-N′-(di(pyridin-2-yl)methylene)-N-methylformohydrazonamide]
IC50 [3]: ≥ 257 µM | intracellular Fe chelation efficacy relative to parent chelator (100%) [4]: 2.5% | 59Fe mobilization (in words) (MCF-7 cells [9]): comparable (p > 0.05) to the control medium | IC50 [11]: 640 ± 65.9 µM | IC50 [12]: 257 ± 73.6 µM | inhibition of 59Fe uptake from 59Fe-transferrin (in words) (MCF-7 cells [13]): loss of Fe chelation efficacy

Structure (SMILES): NC(=S)NN=Cc1ncccc1N [Triapine®, 3-aminopyridine-2-carboxaldehyde thiosemicarbazone]
half-life of elimination [15]: approximately 1 h
